Experimental data: US5352591A, “Aldolase enzyme process for making 5-azido-5-deoxy-hexulose-1-phosphate” (The Scripps Research Institute, priority 1993, dated 1994)
Entries after “also recorded” stand apart in the source; their conditions may differ. Where two headings read alike, the source gives them in different places. Blank lines part the entries; values can stand above or below the compound they belong to.

Key:
[1] = target: T1, α-Glucosidase (brewer yeast) (Saccharomyces cerevisiae, UniProt P53341); assay: Inhibition of α-glucosidase (Lineweaver-Burk, p-nitrophenol release); format: biochemical; details: pH 6.5
T1 construct: purchased Sigma
Method: The following solutions were prepared for enzymatic assay: 1. […] The following illustrates the procedure in detail.

[2] = target: β-Glucosidase (almond); assay: Inhibition of β-glucosidase; format: biochemical; details: pH 6.5
Method: The following solutions were prepared for enzymatic assay: 1. […] The assay enzyme solution was prepared by dissolving 20 milligrams of solid protein (4.8 Units/milligram solid) in 6 mL PIPES-NaOAc buffer solution. […] The following illustrates the procedure in detail.

[3] = target: T2, β-Galactosidase (E. coli) (Escherichia coli, UniProt P00722); assay: Inhibition of β-galactosidase; format: biochemical; details: at 1 mM; pH 6.5
T2 construct: purchased Sigma
Method: (§1) The following solutions were prepared for enzymatic assay:
6. β-D-Galactosidase: 0.5 milligrams of solid protein (345 Units/milligram) were dissolved in 1 mL PIPES-NaOAc buffer solution.
(§2) The following illustrates the procedure in detail.

[4] = target: T3, α-Mannosidase (jack bean) (Canavalia ensiformis, UniProt C0HJB3); assay: Inhibition of α-mannosidase; format: biochemical
T3 construct: purchased Sigma
T3 sequence (C0HJB3 1-562 limits assumed): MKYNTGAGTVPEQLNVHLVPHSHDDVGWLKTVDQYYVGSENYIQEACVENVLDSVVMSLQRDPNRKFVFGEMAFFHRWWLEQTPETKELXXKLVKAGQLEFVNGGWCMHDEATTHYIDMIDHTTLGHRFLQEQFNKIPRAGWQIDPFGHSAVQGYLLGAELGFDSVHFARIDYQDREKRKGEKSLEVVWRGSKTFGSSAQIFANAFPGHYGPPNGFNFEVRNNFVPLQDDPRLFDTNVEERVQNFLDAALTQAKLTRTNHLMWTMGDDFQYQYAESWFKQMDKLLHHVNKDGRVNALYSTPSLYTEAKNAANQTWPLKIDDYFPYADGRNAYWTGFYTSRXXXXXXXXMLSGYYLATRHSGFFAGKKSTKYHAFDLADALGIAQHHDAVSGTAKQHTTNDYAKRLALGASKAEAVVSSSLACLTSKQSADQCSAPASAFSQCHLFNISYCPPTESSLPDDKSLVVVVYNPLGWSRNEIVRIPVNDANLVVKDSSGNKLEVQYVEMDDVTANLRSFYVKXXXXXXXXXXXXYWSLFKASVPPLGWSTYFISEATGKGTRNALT
T3 sequence (C0HJB3 563-981 limits assumed): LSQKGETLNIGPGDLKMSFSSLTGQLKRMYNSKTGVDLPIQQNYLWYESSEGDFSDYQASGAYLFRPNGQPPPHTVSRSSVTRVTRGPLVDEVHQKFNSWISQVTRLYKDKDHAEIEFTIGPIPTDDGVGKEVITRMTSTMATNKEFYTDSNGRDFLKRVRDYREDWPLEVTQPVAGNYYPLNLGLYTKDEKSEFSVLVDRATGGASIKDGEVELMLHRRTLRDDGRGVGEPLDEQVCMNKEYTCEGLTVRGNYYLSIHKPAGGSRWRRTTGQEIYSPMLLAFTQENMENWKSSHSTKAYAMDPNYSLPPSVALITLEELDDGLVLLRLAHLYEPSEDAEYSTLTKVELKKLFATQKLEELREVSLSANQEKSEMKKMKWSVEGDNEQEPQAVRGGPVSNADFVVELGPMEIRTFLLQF
Method: as §1
4. α-D-Mannosidase: 5 milligrams of solid protein were suspended in I mL of 3M ammonium sulfate [(NH4)2 SO4 ] and 0.1M zinc acetate (ZnOAc).
as §2

[5] = target: T2, β-Galactosidase (E. coli); details: from Fleet et al. 1985; cited from earlier work
[6] = target: β-Xylosidase (A. niger) (Aspergillus niger, UniProt O00089); details: from Fleet et al. 1985; cited from earlier work
[7] = target: β-Glucosidase (almond); details: from Fleet et al. 1985; cited from earlier work
[8] = target: T3, α-Mannosidase (jack bean); details: from Fleet et al. 1985; cited from earlier work
[9] = test system: glycosidases; details: Fleet et al., Tetrahedron Lett. 1985, 26, 3127; cited from earlier work
[10] = target: T1, α-Glucosidase (brewer yeast); details: from Fleet et al., Tetrahedron Lett., 1985, 26:3127; cited from earlier work
[11] = target: T4, α-L-Fucosidase (Homo sapiens, UniProt P04066); assay: α-L-Fucosidase inhibition (fuc-pNP hydrolysis); format: biochemical
T4 sequence (P04066 32-466): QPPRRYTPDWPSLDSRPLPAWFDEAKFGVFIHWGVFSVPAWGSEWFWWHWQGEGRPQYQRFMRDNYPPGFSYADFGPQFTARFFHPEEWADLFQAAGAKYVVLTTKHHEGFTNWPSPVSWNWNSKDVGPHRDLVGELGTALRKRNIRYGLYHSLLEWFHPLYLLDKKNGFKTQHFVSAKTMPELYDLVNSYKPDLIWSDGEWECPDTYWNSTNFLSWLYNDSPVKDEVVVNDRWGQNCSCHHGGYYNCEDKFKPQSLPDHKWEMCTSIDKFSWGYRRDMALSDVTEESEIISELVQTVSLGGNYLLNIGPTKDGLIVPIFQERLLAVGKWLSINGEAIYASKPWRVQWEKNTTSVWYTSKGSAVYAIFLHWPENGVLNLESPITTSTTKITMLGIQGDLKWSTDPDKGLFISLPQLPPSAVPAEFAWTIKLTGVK
Method: α-L-Fucosidase activity was measured by incubating the enzyme (0.005 Units) with fuc-pNP ([…]) in 0.4 ml of 50 mM acetate buffer, pH 5.5 for 20 minutes at 25° C. in the absence and presence of the azasugars of the present invention. The reaction was stopped by the addition of 0.8 ml of 2 mM glycine buffer, pH 10.5. The amount of formed p-nitrophenol was determined by optical density spectroscopy at a wavelength of 400 nm.

[12] = test system: AIDS virus gp160 envelope protein precursor; details: Walker et al., Proc. Natl. Acad. Sci. 1987; cited from earlier work

T2 sequence (P00722 2-1024 limits assumed): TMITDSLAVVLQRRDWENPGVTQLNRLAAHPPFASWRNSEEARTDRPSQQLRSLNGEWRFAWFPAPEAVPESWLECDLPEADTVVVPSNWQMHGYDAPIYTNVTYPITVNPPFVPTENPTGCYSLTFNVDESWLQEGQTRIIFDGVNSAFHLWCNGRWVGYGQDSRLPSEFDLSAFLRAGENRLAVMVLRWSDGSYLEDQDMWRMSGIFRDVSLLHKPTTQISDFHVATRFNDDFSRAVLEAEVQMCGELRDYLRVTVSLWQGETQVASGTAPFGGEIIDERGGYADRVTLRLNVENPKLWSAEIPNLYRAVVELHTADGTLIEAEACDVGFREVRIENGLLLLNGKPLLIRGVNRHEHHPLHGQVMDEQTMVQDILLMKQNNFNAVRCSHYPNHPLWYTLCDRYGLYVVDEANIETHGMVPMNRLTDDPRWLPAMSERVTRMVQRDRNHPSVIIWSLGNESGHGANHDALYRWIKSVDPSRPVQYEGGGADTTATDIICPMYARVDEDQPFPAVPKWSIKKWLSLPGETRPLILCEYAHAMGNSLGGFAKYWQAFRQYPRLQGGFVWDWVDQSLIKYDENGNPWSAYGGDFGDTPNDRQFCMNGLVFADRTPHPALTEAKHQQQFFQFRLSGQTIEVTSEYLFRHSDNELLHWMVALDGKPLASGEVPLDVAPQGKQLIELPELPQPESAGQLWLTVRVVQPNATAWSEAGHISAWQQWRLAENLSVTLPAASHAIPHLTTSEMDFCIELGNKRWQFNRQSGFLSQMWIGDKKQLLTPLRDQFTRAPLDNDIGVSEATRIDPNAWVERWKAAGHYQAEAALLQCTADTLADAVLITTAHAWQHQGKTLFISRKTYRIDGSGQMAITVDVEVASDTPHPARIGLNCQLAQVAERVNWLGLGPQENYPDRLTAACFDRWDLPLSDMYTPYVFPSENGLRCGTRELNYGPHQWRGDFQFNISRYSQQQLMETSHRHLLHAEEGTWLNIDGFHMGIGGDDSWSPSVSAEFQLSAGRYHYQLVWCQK
T1 sequence (P53341 whole entry): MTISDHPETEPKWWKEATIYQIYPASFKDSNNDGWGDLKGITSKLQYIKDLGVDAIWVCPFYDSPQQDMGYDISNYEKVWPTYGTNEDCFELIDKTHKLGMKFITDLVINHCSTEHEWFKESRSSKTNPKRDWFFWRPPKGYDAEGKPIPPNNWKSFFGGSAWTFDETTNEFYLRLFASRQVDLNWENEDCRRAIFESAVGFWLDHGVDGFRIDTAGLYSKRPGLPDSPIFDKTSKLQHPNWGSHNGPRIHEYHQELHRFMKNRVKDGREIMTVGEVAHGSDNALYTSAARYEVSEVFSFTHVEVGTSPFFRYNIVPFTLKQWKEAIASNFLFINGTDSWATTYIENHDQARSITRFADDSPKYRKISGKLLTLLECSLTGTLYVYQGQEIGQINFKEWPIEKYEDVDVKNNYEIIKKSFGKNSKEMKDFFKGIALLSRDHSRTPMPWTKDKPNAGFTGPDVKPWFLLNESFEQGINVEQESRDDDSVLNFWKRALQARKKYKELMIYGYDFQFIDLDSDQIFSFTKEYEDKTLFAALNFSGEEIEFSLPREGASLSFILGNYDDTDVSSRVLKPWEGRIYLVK
Chain of β-Xylosidase (A. niger) (O00089 27-804): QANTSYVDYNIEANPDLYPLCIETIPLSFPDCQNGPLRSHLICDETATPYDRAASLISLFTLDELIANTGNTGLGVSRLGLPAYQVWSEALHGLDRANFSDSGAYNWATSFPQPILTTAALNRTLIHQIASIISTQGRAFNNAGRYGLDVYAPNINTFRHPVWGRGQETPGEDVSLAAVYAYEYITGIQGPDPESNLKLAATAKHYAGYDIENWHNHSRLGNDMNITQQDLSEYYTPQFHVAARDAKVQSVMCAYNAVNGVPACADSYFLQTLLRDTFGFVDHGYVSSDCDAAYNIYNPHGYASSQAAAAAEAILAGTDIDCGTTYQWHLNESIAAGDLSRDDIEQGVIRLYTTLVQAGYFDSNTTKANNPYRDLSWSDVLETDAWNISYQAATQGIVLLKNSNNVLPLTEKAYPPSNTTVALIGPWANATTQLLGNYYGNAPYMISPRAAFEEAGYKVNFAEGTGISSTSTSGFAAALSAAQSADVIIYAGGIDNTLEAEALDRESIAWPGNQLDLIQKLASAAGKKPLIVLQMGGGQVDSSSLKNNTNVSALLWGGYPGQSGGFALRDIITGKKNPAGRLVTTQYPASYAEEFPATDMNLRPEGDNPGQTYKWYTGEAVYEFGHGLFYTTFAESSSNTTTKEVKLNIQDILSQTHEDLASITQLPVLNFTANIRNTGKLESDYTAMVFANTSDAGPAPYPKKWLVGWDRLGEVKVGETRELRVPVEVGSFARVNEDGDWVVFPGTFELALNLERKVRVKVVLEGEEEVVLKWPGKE

SMILES: OC[C@@H]1N[C@H](CO)[C@@H](O)[C@@H]1O [Compound 2, (2R,5S)-dihydroxymethyl-(3R,4R)-dihydroxypyrrolidine]
- Ki [1]: 2.8 µM
- Ki [2]: 19 µM
- Ki Values, β-Galactosidase (E. coli) [3]: No inhibition
- inhibition of an α-mannosidase (in words) [4]: significant inhibition
- Ki ([4]; pH 6.5): 3100 µM

SMILES: OC[C@H]1N[C@H](CO)[C@@H](O)[C@@H]1O [Compound X, (2R,5R)-dihydroxymethyl-(3R,4R)-dihydroxypyrrolidine]
- Ki Values, β-Galactosidase (E. coli) [5]: No inhibition
- Ki [6]: 250 µM
- Ki [7]: 7.8 µM
- Ki Values, α-Mannosidase (jack bean) [8]: no inhibitory activity; also recorded: no inhibition
- inhibition against glycosidases, including α- and β-glucosidases and β-xylosidase (in words) [9]: broad spectrum of inhibition
- Ki [10]: 3.3 µM

- type of inhibition of fucosidase ([11]; versus fuc-pNP): competitive inhibitor
- Ki ([11]; versus fuc-pNP, 50 mM acetate buffer pH 5.5, 25° C., read-out: Ki, α-L-Fucosidase inhibition): 300 µM
SMILES: C[C@@H]1OC(O)[C@@H](O)[C@H](O)[C@@H]1O (stereo partly drawn) [L-fucose]

SMILES: OC1CN2CCC(O)C2C(O)C1O (stereo not shown) [castanospermine, 1,6,7,8tetrahydroxyoctahydroindolizine]
- inhibition of processing of the AIDS virus gp160 envelope protein precursor (in words) [12]: inhibit the processing

SMILES: Oc1ccccc1 [phenol]
- Ki [11]: 180 ± 20 µM
- type of inhibition of fucosidase ([11]; versus fuc-pNP): noncompetitive inhibitor
